Laboratory results: patent US9250241B2, “Use of micropatterned soft substrate for measuring of cell traction forces” (COMMISSARIAT A L'ENERGIE ATOMIQUE ET AUX ENERGIES …, priority 2011, dated 2016)

Experiments:
[1] = tested on: MCF10A expressing inducible ErbB2 receptor; test: Cell traction force measurement by crossbow micropattern bar length on micropatterned PAA, ErbB2 inducible cells; type: cell-based, human; details: 1 μM, 48 hr before traction force measurement; FIG. 5C
Description: When actin cables have an unpredictable spatial distribution, a given deformation cannot be directly assigned to a defined force magnitude. Indeed, forces applied on adjacent adhesion sites both affect local deformations, due to the continuous nature of the substrate. Each deformation results from local and distant forces. So the calculation of the force field is highly dependent on the spatial distribution of force application sites and the relationship between deformation and forces varies from one cell to the other. The inventors hypothesized that in cells developing a reproducible architecture and a controlled pattern of force application, a given local deformation could be assigned to a defined value of the contractile force. […] When the deformation was measured along the shortest, and therefore most contracted, cell axis, the correlation was improved (FIG. 4C). […] On the crossbow, a single image acquisition was sufficient to measure the bar length and read the corresponding average cell traction force using the calibration curve (FIG. 4F). […]
The culture of MCF10A cells and the generation of ΔCK2β cell line was described previously (Deshiere et al (2008) Mol Cell Biochem 316(1-2):107-113). […] Substrate relaxation was assessed by detaching cells with trypsin. […]

MCF10A cells = test: Cell traction force measurement by crossbow micropattern bar length on micropatterned PAA; type: cell-based, human
Method: Non-tumorigenic human epithelial cells from the mammary gland, MCF10A, were plated on the micropatterned PAA substrates. Cells specifically attached to the fibronectin coated micropatterns since non-exposed PAA regions prevented protein adsorption (FIG. 2D). The effect of micropattern geometry on cell traction forces orientation was tested on various shapes: disc, pacman and crossbow (FIG. 3A). Spread cells exerted traction forces on the micropattern that could be measured by looking at the displacement of fluorescent beads embedded in the PAA gel (see FIG. 3B and Material and Methods). Particle Image Velocimetry followed by individual particle tracking were used to measure bead displacements (Marganski et al (2003) Methods Enzymol 361:197-211; Sabass et al (2008) Biophys J 94(1):207-220). Force fields were calculated from the bead displacement fields by using the Fourier transform traction cytometry (Sabass et al, supra; Butler et al (2002) Am J Physiol Cell Physiol 282(3):C595-605). Force fields exerted by individual cells were overlaid and averaged to quantify their reproducibility (FIG. 3C,D). On homogeneously coated regions cells developed forces that were randomly distributed from one cell to the other. In cells constrained on disc shaped micropatterns, forces were still randomly oriented but their magnitudes were lowered due to reduced cell spreading. In cells constrained on pacman shaped micropatterns, forces distribution was geometrically biased due to enhanced cell contraction above non adhesive regions. […] Importantly, most of the traction forces were reproducibly oriented upward, along the straight adhesive bar on the extremity of which the inventors measured the highest pressure (FIG. 3D). […]
When actin cables have an unpredictable spatial distribution, a given deformation cannot be directly assigned to a defined force magnitude. […] When the deformation was measured along the shortest, and therefore most contracted, cell axis, the correlation was improved (FIG. 4C). […]

In the case of CCC(C)(C)C(=O)C(=O)N1CCCC[C@H]1C(=O)O[C@H](CCc1ccc(OC)c(OC)c1)c1cccc(OCC(=O)NCCNC(=O)COc2cccc([C@@H](CCc3ccc(OC)c(OC)c3)OC(=O)[C@@H]3CCCCN3C(=O)C(=O)C(C)(C)CC)c2)c1 [AP1510], the “level of cell contraction versus WT cells” value [1] is reported as “no significant changes in the level of cell contraction”.
Cc1ccc2c(c1)C(=O)C1(O)CCN(c3ccccc3)C1=N2 (stereo not shown) [Blebbistatin] was tested, and the “force magnitude decrease over time” value (MCF10A cells; 50 μM, single cell, FIG. 5B) was “follows a single exponential decay” and the “force inhibition profile in response to increasing dose” value (MCF10A cells; increasing drug concentrations successively applied to 6 cells, crossbow bar length, FIG. 5A) was “matched the myosin II inhibition profile”.
In the case of “TGFb1: known to induce epithelial to mesenchymal transition (R&D systems)”, the “level of cell contraction versus WT cells (crossbow shortening)” value (MCF10A cells; 2 ng/mL for 2 days before plating, FIG. 5C) is reported as “significantly higher level of cell contraction”.
